Results from patent US7671061B2, “Methods and compositions for treating pain” (Hydra Biosciences, Inc., priority 2005, dated 2010).
“Also recorded” adds a separate entry of the source.

Experiments:
hERG [1] = molecular target: T1, hERG (Homo sapiens, UniProt Q12809); experiment: hERG patch clamp (Qpatch) selectivity; details: hERG IC50 (nM), Table 2
hTRPV4 = hTRPV4 (Homo sapiens, UniProt Q9HBA0); experiment: hTRPV4 patch clamp selectivity; type: cell-based; details: Table 2
hERG [2] = molecular target: T1, hERG; experiment: in vitro; details: selective for TRPA1 over hERG
[3] = system: CFA model of inflammatory pain; experiment: CFA model of inflammatory pain
Description: FIG. 4 summarizes data obtained following testing of Compound 200 in the CFA model. Naive rats were pretested for sensitivity to a heat stimulus in the Hargreaves apparatus. The next day, 100 μL of complete Freund's adjuvant (CFA) was injected into the plantar surface of the right hindpaw. Two days later, in the morning, the rats were again pretested. In the afternoon, rats were injected with either vehicle control or with drug (TRPA1 inhibitor 200 or the non-steroidal anti-inflammatory diclofenac). Drugs or vehicle were injected intraperitoneally, and 45 minutes later rats were tested for hyperalgesia by applying the heat source to the CFA injected and uninjected hindpaw and measuring latency to withdrawal.

[4] = system: bradykinin induced tactile allodynia; experiment: Bradykinin induced pain model; type: in vivo, rat
Description: As outlined above, the bradykinin model involves an intraplantar injection of a 5 ng/uL solution of bradykinin. Injection of the bradykinin solution typically causes a rapid sensitization. Sensitization is measured by assessing the thermal escape latency of the injected paw in response to a mild thermal stimulus delivered by a modified Hargreaves apparatus. FIGS. 1a and 1b summarize data obtained following testing of Compound 200 in the bradykinin model. This study examined the antinociceptive effects of 200 mg/kg, 50 mg/kg, and 12.5 mg/kg intraperitoneal Compound 200 on bradykinin induced tactile allodynia. […] Inhibitor or vehicle were injected intraperitoneally (IP). […] Throughout the study, general behavioral assessments were made during each period of observation. Observations included tactile allodynia (vocalization/agitation induced by light touch applied to the body surface), spontaneous vocalization, biting and chewing of body surface, loss of hind limb placing and stepping reflex, loss of hind limb weight bearing, and loss of righting reflex. Additionally, mechanical allodynia was assessed and measured. The results provided in FIGS. 1a and 1b are based on assessment of mechanical allodynia.

Stability in rat plasma = type: in vitro ADME; details: 37° C.
Description: Compound 200 was stable in rat plasma for ≧1 hour at 37° C.

hTRPA1 = molecular target: T2, hTRPA1 (Homo sapiens, UniProt O75762, K186N); experiment: High throughput Ca2+ fluorescence (Fluo4) assay, AITC stimulation; type: cell-based; details: Table 2; read-out: hTRPA1 Fluor IC50
T2 construct: expressed in transfected cells; host or cells: HEK293/TREx (Invitrogen), induced with tetracycline
T2 sequence (O75762 whole entry K186N): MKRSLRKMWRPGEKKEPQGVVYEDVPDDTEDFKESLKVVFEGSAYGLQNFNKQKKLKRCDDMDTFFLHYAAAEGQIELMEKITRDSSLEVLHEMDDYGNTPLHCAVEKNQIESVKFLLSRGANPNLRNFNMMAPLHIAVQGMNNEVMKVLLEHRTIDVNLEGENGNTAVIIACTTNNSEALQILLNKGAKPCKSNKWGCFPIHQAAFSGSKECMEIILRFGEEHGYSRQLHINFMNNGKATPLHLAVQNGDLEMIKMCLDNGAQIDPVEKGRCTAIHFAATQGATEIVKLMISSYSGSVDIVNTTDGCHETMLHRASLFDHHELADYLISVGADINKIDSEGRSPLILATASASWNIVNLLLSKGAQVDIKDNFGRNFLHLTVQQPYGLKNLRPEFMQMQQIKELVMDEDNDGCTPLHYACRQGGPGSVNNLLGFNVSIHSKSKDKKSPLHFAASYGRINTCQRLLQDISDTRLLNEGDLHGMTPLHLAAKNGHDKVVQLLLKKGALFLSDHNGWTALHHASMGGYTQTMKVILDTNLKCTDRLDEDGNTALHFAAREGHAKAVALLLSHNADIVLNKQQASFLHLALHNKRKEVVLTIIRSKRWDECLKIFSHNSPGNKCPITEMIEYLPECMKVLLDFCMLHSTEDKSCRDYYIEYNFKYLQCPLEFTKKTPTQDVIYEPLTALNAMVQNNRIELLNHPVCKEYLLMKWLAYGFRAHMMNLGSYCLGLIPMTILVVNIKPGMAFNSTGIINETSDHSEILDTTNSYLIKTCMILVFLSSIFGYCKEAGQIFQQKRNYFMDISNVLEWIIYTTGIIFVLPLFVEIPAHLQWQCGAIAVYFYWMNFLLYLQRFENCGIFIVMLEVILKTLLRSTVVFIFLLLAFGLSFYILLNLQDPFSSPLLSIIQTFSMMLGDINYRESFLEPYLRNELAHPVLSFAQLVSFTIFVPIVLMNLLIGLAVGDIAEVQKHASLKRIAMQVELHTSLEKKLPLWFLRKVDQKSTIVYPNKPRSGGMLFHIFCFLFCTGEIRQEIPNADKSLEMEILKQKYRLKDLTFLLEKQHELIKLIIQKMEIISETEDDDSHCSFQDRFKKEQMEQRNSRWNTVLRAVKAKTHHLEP
Procedure, shortened: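 Read-out is Fluo4 fluorescence, proportional to [Ca2+]i, over ~3 min after AITC challenge, following 2 min compound pre-exposure in HEK293/TREx cells induced with 1 μg/ml tetracycline. Dye: 1 μM, 60 min, room temperature.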

Chain of hTRPV4 (Q9HBA0 whole entry): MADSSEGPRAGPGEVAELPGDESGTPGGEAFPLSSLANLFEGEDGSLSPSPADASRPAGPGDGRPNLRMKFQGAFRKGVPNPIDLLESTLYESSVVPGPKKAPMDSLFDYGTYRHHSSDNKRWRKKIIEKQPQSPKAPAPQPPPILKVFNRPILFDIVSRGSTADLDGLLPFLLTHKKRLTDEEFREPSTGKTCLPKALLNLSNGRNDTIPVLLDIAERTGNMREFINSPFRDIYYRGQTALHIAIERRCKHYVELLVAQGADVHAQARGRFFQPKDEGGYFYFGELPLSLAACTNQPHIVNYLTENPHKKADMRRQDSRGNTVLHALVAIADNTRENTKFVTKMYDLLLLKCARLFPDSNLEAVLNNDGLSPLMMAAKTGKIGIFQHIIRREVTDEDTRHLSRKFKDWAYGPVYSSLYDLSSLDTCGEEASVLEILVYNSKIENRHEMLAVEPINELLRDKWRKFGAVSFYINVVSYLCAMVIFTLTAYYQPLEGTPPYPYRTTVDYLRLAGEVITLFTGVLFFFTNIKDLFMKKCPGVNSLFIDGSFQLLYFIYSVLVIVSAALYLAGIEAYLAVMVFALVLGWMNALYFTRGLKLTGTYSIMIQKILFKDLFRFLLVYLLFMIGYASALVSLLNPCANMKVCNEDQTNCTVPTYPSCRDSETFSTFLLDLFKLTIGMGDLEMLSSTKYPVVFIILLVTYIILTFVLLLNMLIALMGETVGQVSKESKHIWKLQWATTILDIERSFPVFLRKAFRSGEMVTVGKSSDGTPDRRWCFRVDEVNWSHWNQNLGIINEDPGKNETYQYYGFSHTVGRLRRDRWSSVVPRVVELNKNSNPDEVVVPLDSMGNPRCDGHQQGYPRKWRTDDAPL
T1 sequence (Q12809 whole entry): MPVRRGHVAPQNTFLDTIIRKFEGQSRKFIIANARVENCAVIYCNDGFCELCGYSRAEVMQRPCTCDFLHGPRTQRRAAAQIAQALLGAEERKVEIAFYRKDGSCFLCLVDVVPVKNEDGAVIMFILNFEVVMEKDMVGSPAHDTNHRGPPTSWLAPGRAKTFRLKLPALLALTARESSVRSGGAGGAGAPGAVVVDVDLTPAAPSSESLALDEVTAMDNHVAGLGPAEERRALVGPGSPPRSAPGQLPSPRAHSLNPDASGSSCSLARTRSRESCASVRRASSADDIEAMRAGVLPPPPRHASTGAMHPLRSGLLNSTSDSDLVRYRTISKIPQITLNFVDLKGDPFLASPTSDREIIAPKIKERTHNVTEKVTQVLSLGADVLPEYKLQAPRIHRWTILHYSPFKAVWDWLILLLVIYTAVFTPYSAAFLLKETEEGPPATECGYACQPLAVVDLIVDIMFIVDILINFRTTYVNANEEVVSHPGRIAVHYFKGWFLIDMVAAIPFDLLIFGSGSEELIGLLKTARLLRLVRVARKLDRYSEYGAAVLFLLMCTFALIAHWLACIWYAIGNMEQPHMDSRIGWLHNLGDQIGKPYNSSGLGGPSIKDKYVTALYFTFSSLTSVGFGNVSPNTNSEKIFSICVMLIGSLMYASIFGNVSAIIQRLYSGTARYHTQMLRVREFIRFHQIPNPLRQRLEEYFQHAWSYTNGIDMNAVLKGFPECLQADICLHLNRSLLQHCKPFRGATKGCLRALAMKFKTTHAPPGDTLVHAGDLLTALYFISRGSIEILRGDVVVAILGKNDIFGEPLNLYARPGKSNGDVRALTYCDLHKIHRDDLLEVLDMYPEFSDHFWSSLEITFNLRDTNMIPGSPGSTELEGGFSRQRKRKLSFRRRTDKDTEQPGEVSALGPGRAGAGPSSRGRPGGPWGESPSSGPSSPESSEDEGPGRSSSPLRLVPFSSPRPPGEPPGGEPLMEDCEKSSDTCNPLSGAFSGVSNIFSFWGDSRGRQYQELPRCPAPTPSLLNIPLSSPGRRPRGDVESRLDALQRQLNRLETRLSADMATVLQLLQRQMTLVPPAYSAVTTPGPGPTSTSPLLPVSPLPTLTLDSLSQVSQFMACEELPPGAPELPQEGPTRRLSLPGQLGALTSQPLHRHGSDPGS

CC(C)c1ccc(NC(=O)Cn2cnc3c2c(=O)n(C)c(=O)n3C)cc1 [Compound 200, 2-(1,3-dimethyl-2,6-dioxo-1,2,3,6-tetrahydropurin-7-yl)-N-(4-isopropylphenyl)acetamide]
IC50 (hERG [1]): ≥ 20000 nM | IC50 (hTRPV4): > 10 µM | selective for TRPA1 over TRPV4 (hTRPV4): ≥ 5 fold | selectivity ratio (hERG [2]): ≥ 20 | efficacy compared with diclofenac ([3]; IP): superior to diclofenac | thermal hyperalgesia ([3]; IP, 45 minutes before test, CFA injected paw): reduced | toxicity ([3]; rat, in vivo, ip): without toxicity | control paw (uninflamed) sensation ([3]; uninjected hindpaw): not affected | effect on mechanical threshold / allodynia after bradykinin injection ([4]; IP 12.5, 50, 200 mg/kg, 30 min before bradykinin): dose dependent effect; also recorded: dose dependent decrease of allodynia | changes in behavioral parameters ([4]; IP doses up to 200 mg/kg): no changes in behavioral parameters were noted | duration of effect on mechanical threshold ([4]; IP doses up to 200 mg/kg): approximately 60 minutes | rats with mild sedation ([4]; highest dose (200 mg/kg IP)): 3 of 8 | stable in rat plasma (Stability in rat plasma): ≥ 1 h | IC50 (hTRPA1): ≤ 5 µM
